From patent publication US7122543B2, “Substituted benzoic acid derivatives having NF-κB inhibiting action” (Daiichi Suntory Pharma Co., Ltd., priority 2001, dated 2006) come the findings set out here.

Converted amounts (≈) assume the structure as drawn. Some results are limits rather than exact numbers.

Broadly, the IC50 is the concentration that inhibits the measured activity by half.

This series concerns NF-κB. Briefly: NF-κB luciferase reporter assay in A549/NF-κBLuc cells stimulated with IL-1β. The class given is cell-based, human. The protocol:
Effects of Compounds on Human Lung Cancer A549 Cells (A549/NF-κBLuc) Stably Transfected with Luciferase Plasmid (pNFκB-Luc, Stratagene, U.S.A.) Having the NF-κB Regulatory Sequence
Using lipofectamine (Lifetech Oriental K.K., Tokyo), pNFκB-Luc were cotransfected with pSV2neo (Clontech, U.S.A.) into A549 cells (ATCC CCL185) according to the conventional method, and A549/NF-κBLuc stably transfected with pNFκB-Luc were selected by adding G418 sulfate (1 mg/ml, Lifetech Oriental K.K.) to the culture medium.
A compound prepared in an Example was added to A549/NF-κBLuc, then IL-1β which was able to activate the NF-κB was added at 1 hour thereafter and incubation was continued for 3 hours more. It has been made clear by using a luciferase activity as an index that the compound obtained in the Example suppresses the activation of NF-κB by stimulated with IL-1β.
On the technique in general: Reporter assays use an easily measured gene product as a stand-in for the process of interest.

The mark [1] stands for this setting: Homo sapiens, A549, A549/NF-κBLuc cells, compound added 1 hour before IL-1β, 3 hours more incubation, luciferase activity as index.
[2] abbreviates: Homo sapiens, A549, same value printed in parentheses in μM, A549/NF-κBLuc cells, IL-1β stimulation, luciferase activity.
[3] abbreviates: A549/NF-κBLuc cells, compound added 1 hour before IL-1β, 3 hours more incubation, luciferase activity as index.
The mark [4] stands for this setting: same value printed in parentheses in μM, A549/NF-κBLuc cells, IL-1β stimulation, luciferase activity.

On to `COc1c(C)c(Cc2ccc(C(=O)O)c(-c3cccnc3)c2)c(OC)c(OC)c1OC` [Example 12, 4-(3,4,5,6-Tetramethoxy-2-methylbenzyl)-2-(3-pyridyl) benzoic acid], for which the “IC50 value (result in words)” value (A549/NF-κBLuc cells, word printed in the IC50 column instead of a value) was “toxic”.

For the compound `COc1c(C)c(Cc2ccc(-c3cccnc3)c(C(=O)O)c2)c(OC)c(OC)c1OC` [Example 14, 5-(3,4,5,6-Tetramethoxy-2-methylbenzyl)-2-(3-pyridyl)benzoic acid], the IC50 under setting [1] was more than 15 µg/mL.

On to `COc1c(C)c(Cc2ccc(-c3ccncc3)c(C(=O)O)c2)c(OC)c(OC)c1OC` [Example 15, 5-(3,4,5,6-Tetramethoxy-2-methylbenzyl)-2-(4-pyridyl)benzoic acid], for which the IC50 under setting [1] is more than 15 µg/mL.

On to `COc1cccc(-c2ccc(Cc3c(C)c(OC)c(OC)c(OC)c3OC)cc2C(=O)O)c1` [Example 17, 5-(3,4,5,6-Tetramethoxy-2-methylbenzyl)-2-(3-methoxyphenyl)benzoic acid], for which the IC50 under setting [1] is more than 15 µg/mL.

Regarding `COc1ccccc1-c1ccc(Cc2c(C)c(OC)c(OC)c(OC)c2OC)cc1C(=O)O` [Example 18, 5-(3,4,5,6-Tetramethoxy-2-methylbenzyl)-2-(2-methoxyphenyl)benzoic acid], the 50% inhibitory concentration (IC50) under setting [1] is more than 15 µg/mL.

As for `COC1=C(OC)C(=O)C(Cc2ccc(C(=O)O)c(-c3ccccc3)c2)=C(C)C1=O` [Example 35, 4-(5,6-Dimethoxy-3-methyl-1,4-benzoquinon-2-yl)methyl-2-phenylbenzoic acid], the IC50 under setting [1] is more than 15 µg/mL.

`COC1=C(OC)C(=O)C(Cc2ccc(C(=O)O)c(-c3cccnc3)c2)=C(C)C1=O` [Example 36, 4-(5,6-Dimethoxy-3-methyl-1,4-benzoquinon-2-yl)methyl-2-(3-pyridyl)benzoic acid] came in with an IC50 under setting [1] of more than 15 µg/mL.

On to `COC1=C(OC)C(=O)C(Cc2ccc(-c3ccccc3)c(C(=O)O)c2)=C(C)C1=O` [Example 37, 5-(5,6-Dimethoxy-3-methyl-1,4-benzoquinon-2-yl)methyl-2-phenylbenzoic acid], for which the IC50 under setting [1] was more than 45 µg/mL.

With `COC1=C(OC)C(=O)C(Cc2ccc(-c3cccnc3)c(C(=O)O)c2)=C(C)C1=O` [Example 38, 5-(5,6-Dimethoxy-3-methyl-1,4-benzoquinon-2-yl)methyl-2-(3-pyridyl)benzoic acid], the IC50 under setting [1] was more than 45 µg/mL.

Under setting [1], `COC1=C(OC)C(=O)C(Cc2ccc(-c3ccncc3)c(C(=O)O)c2)=C(C)C1=O` [Example 39, 5-(5,6-Dimethoxy-3-methyl-1,4-benzoquinon-2-yl)methyl-2-(4-pyridyl)benzoic acid] registered an IC50 of more than 30 µg/mL.

As to `COC1=C(OC)C(=O)C(Cc2ccc(-c3ccc(OC)cc3)c(C(=O)O)c2)=C(C)C1=O` [Example 40, 5-(5,6-Dimethoxy-3-methyl-1,4-benzoquinon-2-yl)methyl-2-(4-methoxyphenyl)benzoic acid], the IC50 under setting [1] is more than 45 µg/mL.

Under setting [1], `COC1=C(OC)C(=O)C(Cc2ccc(C(=O)Nc3ccc(C(F)(F)F)cc3)c(-c3ccccc3)c2)=C(C)C1=O` [Example 45, N-[4-(5,6-Dimethoxy-3-methyl-1,4-benzoquinon-2-yl)methyl-2-phenylbenzoyl]-4-trifluoromethyl-aniline] displayed an IC50 of more than 30 µg/mL.

As to `COC1=C(OC)C(=O)C(Cc2ccc(C(=O)N3CCOCC3)c(-c3cccnc3)c2)=C(C)C1=O` [Example 47, N-[4-(5,6-Dimethoxy-3-methyl-1,4-benzoquinon-2-yl)methyl-2-(3-pyridyl)benzoyl]morpholine], the IC50 under setting [1] was 24 µg/mL.

Under setting [1], `COC1=C(OC)C(=O)C(Cc2ccc(C(=O)Nc3ccc(C(F)(F)F)cc3)c(-c3cccnc3)c2)=C(C)C1=O` [Example 48, N-[4-(5,6-Dimethoxy-3-methyl-1,4-benzoquinon-2-yl)methyl-2-(3-pyridyl)benzoyl]-4-trifluoromethylaniline] registered an IC50 of more than 30 µg/mL.

Regarding `COC1=C(OC)C(=O)C(Cc2ccc(C(=O)Nc3ccc(OC)cc3)c(-c3cccnc3)c2)=C(C)C1=O` [Example 49, N-[4-(5,6-Dimethoxy-3-methyl-1,4-benzoquinon-2-yl)methyl-2-(3-pyridyl)benzoyl]-4-methoxy-aniline], the midpoint of inhibition under setting [1], the IC50, lay at 24 µg/mL.

On to `COC1=C(OC)C(=O)C(Cc2ccc(-c3ccccc3)c(C(=O)N3CCOCC3)c2)=C(C)C1=O` [Example 51, N-[5-(5,6-Dimethoxy-3-methyl-1,4-benzoquinon-2-yl)methyl-2-phenylbenzoyl]morpholine], for which, under setting [1], the IC50 is more than 30 µg/mL.

In turn, `COC1=C(OC)C(=O)C(Cc2ccc(-c3ccccc3)c(C(=O)Nc3ccc(OC)cc3)c2)=C(C)C1=O` [Example 52, N-[5-(5,6-Dimethoxy-3-methyl-1,4-benzoquinon-2-yl)methyl-2-phenylbenzoyl]-4-methoxyaniline] had an IC50 under setting [1] of more than 45 µg/mL.

Under setting [1], `COC1=C(OC)C(=O)C(Cc2ccc(-c3ccccc3)c(C(=O)Nc3ccc(C(F)(F)F)cc3)c2)=C(C)C1=O` [Example 53, N-[5-(5,6-Dimethoxy-3-methyl-1,4-benzoquinon-2-yl)methyl-2-phenylbenzoyl]-4-trifluoromethylaniline] came in with an IC50 of more than 30 µg/mL.

As for `COC1=C(OC)C(=O)C(Cc2ccc(-c3cccnc3)c(C(=O)N3CCCCC3)c2)=C(C)C1=O` [Example 54, N-[5-(5,6-Dimethoxy-3-methyl-1,4-benzoquinon-2-yl)methyl-2-(3-pyridyl)benzoyl]piperidine], the IC50 reads like this: under setting [1], 15 µg/mL; under setting [2], 33 µM.

In the case of `COC1=C(OC)C(=O)C(Cc2ccc(-c3cccnc3)c(C(=O)N3CCOCC3)c2)=C(C)C1=O` [Example 55, N-[5-(5,6-Dimethoxy-3-methyl-1,4-benzoquinon-2-yl)methyl-2-(3-pyridyl)benzoyl]morpholine], under setting [1], the half-inhibitory concentration (IC50) is more than 45 µg/mL.

The compound `COC1=C(OC)C(=O)C(Cc2ccc(-c3cccnc3)c(C(=O)Nc3ccc(OC)cc3)c2)=C(C)C1=O` [Example 56, N-[5-(5,6-Dimethoxy-3-methyl-1,4-benzoquinon-2-yl)methyl-2-(3-pyridyl)benzoyl]-4-methoxy-aniline] yielded an IC50 under setting [1] of more than 45 µg/mL.

Under setting [1], `COC1=C(OC)C(=O)C(Cc2ccc(-c3cccnc3)c(C(=O)Nc3ccc(C(F)(F)F)cc3)c2)=C(C)C1=O` [Example 57, N-[5-(5,6-Dimethoxy-3-methyl-1,4-benzoquinon-2-yl)methyl-2-(3-pyridyl)benzoyl]-4-trifluoromethylaniline] registered an IC50 of more than 30 µg/mL.

The compound `COC1=C(OC)C(=O)C(Cc2ccc(-c3ccncc3)c(C(=O)N3CCCCC3)c2)=C(C)C1=O` [Example 58a, N-[5-(5,6-Dimethoxy-3-methyl-1,4-benzoquinon-2-yl)methyl-2-(4-pyridyl)benzoyl]piperidine] displayed an IC50 value under setting [3] of 15 µg/mL (≈ 32.6 µM). Moreover, the IC50 under setting [4] came out at 30 µM.

Under setting [3], `COC1=C(OC)C(=O)C(Cc2ccc(-c3ccncc3)c(C(=O)N3CCCCC3)c2)=C(C)C1=O` [Example 58b, N-[5-(5,6-Dimethoxy-3-methyl-1,4-benzoquinon-2-yl)methyl-2-(4-pyridyl)benzoyl]piperidine] displayed an IC50 value of 45 µg/mL (≈ 97.7 µM). In addition, under setting [4], the IC50 is 81 µM.

Consider `COC1=C(OC)C(=O)C(Cc2ccc(-c3ccncc3)c(C(=O)N3CCOCC3)c2)=C(C)C1=O` [Example 59, N-[5-(5,6-Dimethoxy-3-methyl-1,4-benzoquinon-2-yl)methyl-2-(4-pyridyl)benzoyl]morpholine], for which the IC50 under setting [1] is more than 45 µg/mL.

As for `COC1=C(OC)C(=O)C(Cc2ccc(-c3ccncc3)c(C(=O)Nc3ccc(OC)cc3)c2)=C(C)C1=O` [Example 60a, N-[5-(5,6-Dimethoxy-3-methyl-1,4-benzoquinon-2-yl)methyl-2-(4-pyridyl)benzoyl]-4-methoxyaniline], the IC50 under setting [1] is more than 30 µg/mL.

Under setting [1], `COC1=C(OC)C(=O)C(Cc2ccc(-c3ccncc3)c(C(=O)Nc3ccc(OC)cc3)c2)=C(C)C1=O.Cl` [Example 60b, N-[5-(5,6-Dimethoxy-3-methyl-1,4-benzoquinon-2-yl)methyl-2-(4-pyridyl)benzoyl]-4-methoxyaniline] had an IC50 of more than 30 µg/mL.

With `COC1=C(OC)C(=O)C(Cc2ccc(-c3ccncc3)c(C(=O)Nc3ccc(C(F)(F)F)cc3)c2)=C(C)C1=O` [Example 61, N-[5-(5,6-Dimethoxy-3-methyl-1,4-benzoquinon-2-yl)methyl-2-(4-pyridyl)benzoyl]-4-trifluoromethylaniline], the IC50 under setting [1] was more than 30 µg/mL.

On to `COC1=C(OC)C(=O)C(Cc2ccc(-c3ccc(OC)cc3)c(C(=O)Nc3ccc(OC)cc3)c2)=C(C)C1=O` [Example 64, N-[5-(5,6-Dimethoxy-3-methyl-1,4-benzoquinon-2-yl)methyl-2-(4-methoxyphenyl]benzoyl)-4-methoxyaniline], for which the IC50 under setting [1] was 12 µg/mL and the IC50 under setting [2] is 23 µM.

Turning to `COC1=C(OC)C(=O)C(Cc2ccc(-c3cccc(OC)c3)c(C(=O)N3CCCCC3)c2)=C(C)C1=O` [Example 65, N-[5-(5,6-Dimethoxy-3-methyl-1,4-benzoquinon-2-yl)methyl-2-(3-methoxyphenyl)benzoyl]-piperidine], the IC50 stood at 40 µg/mL under setting [1] and 82 µM under setting [2].

`COC1=C(OC)C(=O)C(Cc2ccc(-c3cccc(OC)c3)c(C(=O)N3CCOCC3)c2)=C(C)C1=O` [Example 66, N-[5-(5,6-Dimethoxy-3-methyl-1,4-benzoquinon-2-yl)methyl-2-(3-methoxyphenyl)benzoyl]-morpholine]: the IC50 reads like this: under setting [1], 42 µg/mL; under setting [2], 85 µM.
